According to CN109475563A, “蛋白酶抑制剂的长效医药组合物” (Taimed Biologics Inc, priority 2016, dated 2017):

Assays:
[1] = PK of injectable nanosized TMB-607 (summary statement); type: in vivo; settings: injectable formulation of nanosized TMB-607; species not stated
[2] = Monkey PK, nanosuspensions of different particle size; type: in vivo
[3] = biological target: HIV-1 protease (HIV-1蛋白酶) (Human immunodeficiency virus type 1 group M subtype B, UniProt P04585); settings: cited from earlier work
[4] = tested on: single mutations in the protease open reading frame (蛋白酶开放读框); settings: in vitro, site-directed mutagenesis; cited from earlier work
[5] = Rat subcutaneous PK, microparticle vs nanosuspension of TMB-607; type: in vivo; settings: SC
[6] = Dog PK, intramuscular vs subcutaneous nanosuspension of TMB-607; type: in vivo, beagle dog; settings: Fig. 3
[7] = tested on: laboratory-adapted virus (实验室适应病毒); settings: 48-week in vitro selection, increasing TMB-607 concentration; cited from earlier work
[8] = male beagle dog, 60 mg/kg, particle size about 150 nm, 6 weeks

COC(=O)N[C@H](C(=O)NCCCC[C@@H](CO)N(CC(C)C)S(=O)(=O)c1ccc(N)cc1)C(c1ccccc1)c1ccccc1 [TMB-607]
duration of stable plasma levels [1]: > 1 month
plasma level and duration of action, smaller particle size (in words) ([2]; 113 nm compared with 214 nm): 较高的血浆水平和较长的作用时间
plasma level and duration of action, smaller particles (in words) ([2]; monkey, 60 mg/kg, 113 nm versus 214 nm, Fig. 4): 较高的血浆水平和较长的作用时间
AUC0-t on reducing particle size (in words) ([2]; monkey, injected nanosuspension, 60 mg/kg, 214 nm versus 113 nm, 4 weeks): AUC0-t和t1/2均大致增加
plasma level (in words) ([2]; particle sizes 214 nm and 113 nm): 都可以延长血浆水平
inhibition of HIV-1 protease (potency, in words) [3]: 效用 and 有效
selectivity in inhibiting HIV-1 protease (in words) [3]: 选择性 and 有选择性
resistance caused by single mutation (in words) [4]: 单一突变不会导致对TMB-607的明显抗药性
duration of plasma level above protein-binding-adjusted EC50 ([5]; nano-sized TMB-607, printed as 247 nm, Fig. 2): 14 days
duration for which TMB-607 plasma level is maintained ([5]; nanosuspension printed as 247 nm, compared with microparticle 2470 nm, Fig. 2): > 14 days
plasma level above protein-binding-adjusted EC50 for 14 days (in words) ([5]; microparticle 2470 nm, Fig. 2 (general description)): 不能
Cmax in the initial period (in words) ([5]; rat, microparticle 2470 nm, 16.7 mg/kg): 引人注目的高Cmax
plasma level above protein-binding-adjusted EC50 for 14 days (in words) ([5]; rat, microparticle 2470 nm, 16.7 mg/kg, Fig. 2): 不能
release profile (in words) ([5]; rat, nanosuspension 240 nm, 23.5 mg/kg): 持续的释放曲线
duration of plasma level above protein-binding-adjusted EC50 ([5]; rat, nanosuspension 240 nm, doses printed for microparticle and nanosuspension 16.7 and 23.5 mg/kg respectively, Fig. 2): 14 days
AUC0-t, SC versus IM (in words) [6, 8]: 没有在AUC0-t值中观察到明显的差异
Cmax, IM versus SC (in words) [6, 8]: 肌肉给药路径的Cmax值高于皮下给药路径的Cmax值
plasma level after single IM or SC injection (in words) ([6]; single IM or SC injection of nanosuspension): 延长了TMB-607的血浆水平
mutations selected in protease open reading frame [7]: 四个突变
